Experimental data: patent US20090131354A1, “miR-126 REGULATED GENES AND PATHWAYS AS TARGETS FOR THERAPEUTIC INTERVENTION” (priority 2007, published 2009)

Test system: A549 cells
Test: mRNA array gene expression analysis after transfection
Type: cell-based, human

Q: Which results are given for “hsa-miR-126 (UCGUACCGUGAGUAAUAAUGC; synthetic pre-miR form, further chemistry not given here) [Synthetic hsa-miR-126 (Pre-miR™-hsa-miR-126, Ambion cat. no. AM17100)]”?
A: Δ log2 PRNP mRNA: −0.8862 log2; Δ log2 ABAT mRNA (A549, 30 nM): 0.7144 log2; Δ log2 ABCC1 mRNA (A549, 30 nM): −1.371 log2; Δ log2 ABHD3 mRNA (A549, 30 nM): −1.85 log2; Δ log2 ACSM3 mRNA (A549, 30 nM): 1.028 log2; Δ log2 ACTR2 mRNA (A549, 30 nM): 0.8699 log2; Δ log2 ADAM9 mRNA (A549, 30 nM): −1.175 log2; Δ log2 ADK mRNA (A549, 30 nM): −1.161 log2; Δ log2 AES mRNA (A549, 30 nM): −1.21 log2; Δ log2 AHNAK mRNA (A549, 30 nM): −1.362 log2; Δ log2 ALDH6A1 mRNA (A549, 30 nM): 0.9207 log2; Δ log2 ANG /// RNASE4 mRNA (A549, 30 nM): 0.8377 log2; Δ log2 ANKRD46 mRNA (A549, 30 nM): 1.489 log2; Δ log2 ANPEP mRNA (A549, 30 nM): 1.016 log2; Δ log2 ANTXR1 mRNA (A549, 30 nM): −1.152 log2; Δ log2 APOH mRNA (A549, 30 nM): 1.465 log2; Δ log2 APP mRNA (A549, 30 nM): 0.7951 log2; Δ log2 AQP3 mRNA (A549, 30 nM): 1.683 log2; Δ log2 ARFRP1 mRNA (A549, 30 nM): −0.7079 log2; Δ log2 ARG2 mRNA (A549, 30 nM): 0.8026 log2; Δ log2 ARHGAP11A mRNA (A549, 30 nM): −0.8591 log2; Δ log2 ARHGDIA mRNA (A549, 30 nM): −1.479 log2; Δ log2 ARID5B mRNA (A549, 30 nM): 0.8176 log2; Δ log2 ARL2BP mRNA (A549, 30 nM): 0.9301 log2; Δ log2 ARTS-1 mRNA (A549, 30 nM): 0.886 log2; Δ log2 ASNS mRNA (A549, 30 nM): −0.7092 log2; Δ log2 ATP6V0E mRNA (A549, 30 nM): 1.493 log2; Δ log2 ATP6V1D mRNA (A549, 30 nM): −1.206 log2; Δ log2 B4GALT4 mRNA (A549, 30 nM): −2.01 log2; Δ log2 B4GALT6 mRNA (A549, 30 nM): −0.8145 log2; Δ log2 BCL2A1 mRNA (A549, 30 nM): −0.8657 log2; Δ log2 BCL6 mRNA (A549, 30 nM): 1.023 log2; Δ log2 BF mRNA (A549, 30 nM): 1.375 log2; Δ log2 BHLHB2 mRNA (A549, 30 nM): −0.7321 log2; Δ log2 BTG2 mRNA (A549, 30 nM): 0.7161 log2; Δ log2 C1R mRNA (A549, 30 nM): 1.372 log2; Δ log2 C1orf121 mRNA (A549, 30 nM): −1.019 log2; Δ log2 C2orf26 mRNA (A549, 30 nM): −1.688 log2; Δ log2 C2orf33 mRNA (A549, 30 nM): −1.066 log2; Δ log2 C3 mRNA (A549, 30 nM): 1.751 log2; Δ log2 C5orf15 mRNA (A549, 30 nM): −1.099 log2; Δ log2 C6orf75 mRNA (A549, 30 nM): −1.159 log2; Δ log2 C8orf1 mRNA (A549, 30 nM): −1.201 log2; Δ log2 C8orf32 mRNA (A549, 30 nM): −1.162 log2; Δ log2 C19orf28 mRNA (A549, 30 nM): −1.583 log2; Δ log2 CA11 mRNA (A549, 30 nM): 0.8832 log2; Δ log2 CCND1 mRNA (A549, 30 nM): −0.7871 log2; Δ log2 CCNG1 mRNA (A549, 30 nM): 0.7209 log2; Δ log2 CD9 mRNA (A549, 30 nM): −1.226 log2; Δ log2 CDC37L1 mRNA (A549, 30 nM): −1.198 log2; Δ log2 CDH4 mRNA (A549, 30 nM): −1.072 log2; Δ log2 CDH17 mRNA (A549, 30 nM): 1.248 log2; Δ log2 CEACAM1 mRNA (A549, 30 nM): 1.002 log2; Δ log2 CEBPD mRNA (A549, 30 nM): 0.9196 log2; Δ log2 CFH /// CFHL1 mRNA (A549, 30 nM): 0.727 log2; Δ log2 CGI-38 mRNA (A549, 30 nM): 1.152 log2; Δ log2 CGI-48 mRNA (A549, 30 nM): 1.409 log2; Δ log2 CHGB mRNA (A549, 30 nM): 2.066 log2; Δ log2 CHST11 mRNA (A549, 30 nM): −0.8983 log2; Δ log2 CMKOR1 mRNA (A549, 30 nM): −0.9537 log2; Δ log2 COL4A1 mRNA (A549, 30 nM): −1.251 log2; Δ log2 COL4A2 mRNA (A549, 30 nM): −1.104 log2; Δ log2 COPS7A mRNA (A549, 30 nM): −0.7137 log2; Δ log2 CP mRNA (A549, 30 nM): 2.115 log2; Δ log2 CPE mRNA (A549, 30 nM): 0.8454 log2; Δ log2 CPS1 mRNA (A549, 30 nM): 0.7371 log2; Δ log2 CTDSP2 mRNA (A549, 30 nM): 1.119 log2; Δ log2 CTDSPL mRNA (A549, 30 nM): 0.7348 log2; Δ log2 CTGF mRNA (A549, 30 nM): 0.7924 log2; Δ log2 CTPS mRNA (A549, 30 nM): −1.07 log2; Δ log2 CTSS mRNA (A549, 30 nM): 0.9282 log2; Δ log2 CXCL5 mRNA (A549, 30 nM): 0.8706 log2; Δ log2 CYP3A5 mRNA (A549, 30 nM): 0.8111 log2; Δ log2 DAAM1 mRNA (A549, 30 nM): 0.7598 log2; Δ log2 DCBLD2 mRNA (A549, 30 nM): −1.329 log2; Δ log2 DCUN1D1 mRNA (A549, 30 nM): −1.329 log2; Δ log2 DDC mRNA (A549, 30 nM): 1.008 log2; Δ log2 DDX3Y mRNA (A549, 30 nM): 0.738 log2; Δ log2 DHRS2 mRNA (A549, 30 nM): 1.489 log2; Δ log2 DIO2 mRNA (A549, 30 nM): −1.213 log2; Δ log2 DIPA mRNA (A549, 30 nM): −0.8054 log2; Δ log2 DKFZP586A0522 mRNA (A549, 30 nM): 1.054 log2; Δ log2 DLG5 mRNA (A549, 30 nM): −1.467 log2; Δ log2 DNAJB9 mRNA (A549, 30 nM): 0.9599 log2; Δ log2 DPYSL3 mRNA (A549, 30 nM): −0.947 log2; Δ log2 DSU mRNA (A549, 30 nM): 0.9423 log2; Δ log2 DUSP6 mRNA (A549, 30 nM): 0.7153 log2; Δ log2 EEF1D mRNA (A549, 30 nM): 0.9871 log2; Δ log2 EFHD2 mRNA (A549, 30 nM): −1.109 log2; Δ log2 EGFR mRNA (A549, 30 nM): −1.333 log2; Δ log2 EHF mRNA (A549, 30 nM): 2.017 log2; Δ log2 EML1 mRNA (A549, 30 nM): −1.062 log2; Δ log2 ENPP4 mRNA (A549, 30 nM): 0.8064 log2; Δ log2 EPHB2 mRNA (A549, 30 nM): −0.8763 log2; Δ log2 ERBB3 mRNA (A549, 30 nM): 1.041 log2; Δ log2 EREG mRNA (A549, 30 nM): −0.7398 log2; Δ log2 F2RL1 mRNA (A549, 30 nM): −0.7846 log2; Δ log2 F5 mRNA (A549, 30 nM): 1.115 log2; Δ log2 F8A1 mRNA (A549, 30 nM): −0.8485 log2; Δ log2 FAM46A mRNA (A549, 30 nM): 0.8499 log2; Δ log2 FAS mRNA (A549, 30 nM): 0.9486 log2; Δ log2 FBXO11 mRNA (A549, 30 nM): 0.8295 log2; Δ log2 FCMD mRNA (A549, 30 nM): −0.8718 log2; Δ log2 FGB mRNA (A549, 30 nM): 1.118 log2; Δ log2 FGFR1 mRNA (A549, 30 nM): −0.7031 log2; Δ log2 FGFR4 mRNA (A549, 30 nM): 0.9059 log2; Δ log2 FGL1 mRNA (A549, 30 nM): 2.076 log2; Δ log2 FLJ11184 mRNA (A549, 30 nM): −0.9264 log2; Δ log2 FLJ13910 mRNA (A549, 30 nM): 1.05 log2; Δ log2 FLJ20364 mRNA (A549, 30 nM): −1.021 log2; Δ log2 FLJ21159 mRNA (A549, 30 nM): −1.12 log2; Δ log2 FLJ31568 mRNA (A549, 30 nM): 0.732 log2; Δ log2 FLRT3 mRNA (A549, 30 nM): 1.34 log2; Δ log2 FMO5 mRNA (A549, 30 nM): 1.277 log2; Δ log2 FOSL1 mRNA (A549, 30 nM): −0.9348 log2; Δ log2 GABRA5 mRNA (A549, 30 nM): −1.612 log2; Δ log2 GALNT4 mRNA (A549, 30 nM): 1.916 log2; Δ log2 GALNT12 mRNA (A549, 30 nM): −0.8981 log2; Δ log2 GART mRNA (A549, 30 nM): −1.022 log2; Δ log2 GATM mRNA (A549, 30 nM): 1.127 log2; Δ log2 GCH1 mRNA (A549, 30 nM): 0.9389 log2; Δ log2 GLI2 mRNA (A549, 30 nM): −0.8678 log2; Δ log2 GLT25D1 mRNA (A549, 30 nM): −1.17 log2; Δ log2 GLUL mRNA (A549, 30 nM): 0.734 log2; Δ log2 GNA13 mRNA (A549, 30 nM): 0.7394 log2; Δ log2 GPR64 mRNA (A549, 30 nM): −1.209 log2; Δ log2 GREM1 mRNA (A549, 30 nM): −1.049 log2; Δ log2 GTF2B mRNA (A549, 30 nM): −0.9795 log2; Δ log2 GTSE1 mRNA (A549, 30 nM): −0.7712 log2; Δ log2 H2AFY mRNA (A549, 30 nM): −0.841 log2; Δ log2 H3F3B mRNA (A549, 30 nM): −1.391 log2; Δ log2 HERC4 mRNA (A549, 30 nM): −1.409 log2; Δ log2 HES1 mRNA (A549, 30 nM): 0.8154 log2; Δ log2 HIPK3 mRNA (A549, 30 nM): 0.8255 log2; Δ log2 HKDC1 mRNA (A549, 30 nM): −0.8911 log2; Δ log2 HLA-DMA mRNA (A549, 30 nM): 1.267 log2; Δ log2 HLA-DMB mRNA (A549, 30 nM): 1.253 log2; Δ log2 HMGA1 mRNA (A549, 30 nM): −0.8703 log2; Δ log2 IER3IP1 mRNA (A549, 30 nM): 1.015 log2; Δ log2 IFI16 mRNA (A549, 30 nM): 0.7014 log2; Δ log2 IFIT1 mRNA (A549, 30 nM): 0.766 log2; Δ log2 IL6R mRNA (A549, 30 nM): 1.8 log2; Δ log2 IL6ST mRNA (A549, 30 nM): 0.7356 log2; Δ log2 IL11 mRNA (A549, 30 nM): −1.98 log2; Δ log2 ILK mRNA (A549, 30 nM): −1.193 log2; Δ log2 INHBC mRNA (A549, 30 nM): 0.988 log2; Δ log2 ITGAV mRNA (A549, 30 nM): −1.397 log2; Δ log2 ITGB4 mRNA (A549, 30 nM): −1.084 log2; Δ log2 IVNS1ABP mRNA (A549, 30 nM): −1.126 log2; Δ log2 JUN mRNA (A549, 30 nM): −1.257 log2; Δ log2 KCNJ2 mRNA (A549, 30 nM): 0.9432 log2; Δ log2 KCNJ16 mRNA (A549, 30 nM): 0.8637 log2; Δ log2 KCNK5 mRNA (A549, 30 nM): 0.9088 log2; Δ log2 KCTD9 mRNA (A549, 30 nM): −1.102 log2; Δ log2 KIAA0152 mRNA (A549, 30 nM): −1.121 log2; Δ log2 KIAA0317 mRNA (A549, 30 nM): −0.9984 log2; Δ log2 KIAA0882 mRNA (A549, 30 nM): 0.7061 log2; Δ log2 KLC2 mRNA (A549, 30 nM): −1.308 log2; Δ log2 KLF4 mRNA (A549, 30 nM): −1.01 log2; Δ log2 LARP6 mRNA (A549, 30 nM): −1.273 log2
